These results are taken from US20230227838A1, “ENHANCED CELL SURVIVAL AGAINST BIOTIC AND ABIOTIC STRESSES THROUGH SALICYLICK ACID-INDUCED NPR1 CONDENSATES” (priority 2020, published 2023).

The test system of experiment [1] is cytoplasmic condensates (SINCs). The experiment is described as follows: Confocal imaging of localization and condensate (body) formation of GFP-fused NPR proteins and variants. In kind it is cell-based, Nicotiana benthamiana. As to conditions: for SA-induced cytoplasmic body/condensate (SINC) formation: 5 mM SA for 2 hr. In short, it runs like this: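 GFP fusions transiently expressed in N. benthamiana by Agrobacterium infiltration (OD600 1). For NPR1-GFP, 4-day Arabidopsis seedlings were vacuum-infiltrated and, at 48 hpi, soaked 2 h in water or SA. Airyscan confocal, 40× water objective, GFP ex 488 nm/em 505-530 nm; condensate number, size and intensity scored by automated thresholding.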

A further experiment has as its system CUL3. The experiment is described as follows: Co-IP of Myc-CUL3 with HA-fused NPR1 or variants. The class given is binding, Arabidopsis thaliana. As to conditions: for CUL3 pull-down signal in co-IP: 1 mM SA for 5 hr.
The mark [2] stands for this setting: 5 mM SA, single-cell imaging for 2 hr starting 40 min after induction.

Where a chain is given by its changes, count along the chain named. Entries after “also recorded” stand apart in the source; their conditions may differ.

Regarding “NPR1: wild-type Arabidopsis thaliana NPR1 protein, positive regulator of systemic acquired resistance”, the “SA-induced cytoplasmic body/condensate (SINC) formation” value in experiment [1] is given as “significant SA-inducible cytoplasmic body formation”. In experiment [1] (setting [2]), the “number of bodies, time-lapse” value was “started to decrease after 50 min” and the “total fluorescence from each body, time-lapse” value is recorded as “gradual increase in the signal intensity over time”. The “CUL3 pull-down signal in co-IP” value in the experiment with CUL3 is “weak pull-down signal of CUL3”.

For the molecule `O=C(O)c1ccccc1O` [SA, salicylic acid], the “NPR1-CUL3 and sim3-CUL3 interaction under dose response to SA” value in the experiment with CUL3 (0-1 mM SA, 5 hr) is reported as “increase in the interaction”.

B1: sim3: SUMOylation-deficient mutant of NPR1 (protein)
chain: MDTTIDGFADSYEISSTSFVATDNTDSSIVYLAAEQVLTGPDVSALQLLSNSFESVFDSPDDFYSDAKLVLSDGREVSFHRCVLSARSSFFKSALAAAKKEKDSNNTAAVKLELKEIAKDYEVGFDSVVTVLAYVYSSRVRPPPKGVSECADENCCHVACRPAVDFMLEVLYLAFIFKIPELITLYQRHLLDVVDKVVIEDTLVILKLANICGKACMKLLDRCKEIIVKSNVDMVSLEKSLPEELVKEIIDRRKELGLEVPKVKKHVSNVHKALDSDDIELVKLLLKEDHTNLDDACALHFAVAYCNVKTATDLLKLDLADVNHRNPRGYTVLHVAAMRKEPQLAASALEKGASASEATLEGRTALMIAKQATMAVECNNIPEQCKHSLKGRLCVEILEQEDKREQIPRDVPPSFAVAADELKMTLLDLENRVALAQRLFPTEAQAAMEIAEMKGTCEFIVTSLEPDRLTGTKRTSPGVKIAPFRILEEHQSRLKALSKTVELGKRFFPRCSAVLDQIMNCEDLTQLACGEDDTAEKRLQKKQRYMEIQETLKKAFSEDNLELGNSSLTDSTSSTSKSTGGKRSNRKLSHRRR
modifications: left off: small tags and cut ends
notes: SUMOylation-deficient mutant of NPR1
With B1, the “condensate formation at lower SA concentration” value in experiment [1] (1 mM SA for 5 hr) was “could form condensates at a lower concentration of SA”. In addition, in the experiment with CUL3, the “CUL3 pull-down signal in co-IP” value was “significantly stronger CUL3 pull-down signals”.

B2: S55/59D: phosphomimic mutant of NPR1 at S55/59 (protein)
chain: B1 chain with S55D, S59D, A345I, A346L, A348L
modifications: left off: small tags and cut ends
As for B2, in experiment [1], the “SA-induced cytoplasmic body/condensate (SINC) formation” value is reported as “inability to form SINCs; also recorded: fail to form cytoplasmic condensates”. For the same molecule, the “CUL3 pull-down signal in co-IP” value in the experiment with CUL3 is given as “very little signal”.
